The values that follow are results of earlier work, collected in patent publication US10434065B2, “Microfluidic liposome synthesis, purification and active drug loading” (University of Maryland, College Park, priority 2013, dated 2019).

Each structure is given as a SMILES string. Where a name gives a salt, the structure may show the parent alone.

In general, pKa refers to the pH at which an ionisable group is half protonated. For `CN(C)c1ccc2cc3ccc(N(C)C)cc3nc2c1` [AO, Acridine Orange hydrochloride], the pKa was 10.4.
